The test can be described thus: Phosphorus dissolution from sintered hydroxyapatite (tooth enamel model) in 2 wt. % citric acid, ICP-AES. Particulars: for Phosphorus Dissolution Rate (%): 2 wt. % citric acid, pH 2.5, shaken two days, negative control = 100%. On the procedure:
In order to evaluate the inhibitory activity of subject substances on the dissolution (decalcification) of tooth enamel, the following tests were conducted using sintered hydroxyapatite as a tooth enamel model.
Thus, 10 ml of test solution was prepared. The test solution (10 ml) and a piece (720 mg, 10×10×2 mm) of sintered hydroxyapatite (APP-100; PENTAX Corp.) were put into a 15-ml polypropylene tube and the tube was sealed. The tube was shaken horizontally at about 120 times per minute for two days. After the shaking, the amount of phosphorus dissolved from the sintered hydroxyapatite was measured in each test solution by high-frequency inductively coupled plasma atomic emission spectrophotometry (ICP-AES). Another test was conducted as a negative control in the same manner as above, using a 2 wt. % citric acid solution (adjusted to pH 2.5 with sodium hydrate) as a test solution. Still another test was conducted as a positive control in the same manner as above, using CaCl2 (10 mM) as a subject substance. Taking the amount of phosphorus dissolved in the negative control as 100%, the phosphorus dissolution rate (%) was calculated for each subject substance.

With `[Ca+2].[Cl-].[Cl-]` [CaCl2, reference compound], the “Phosphorus Dissolution Rate (%)” value (subject substance 10 mM) stood at 75.0%.
With `OC[C@H]1O[C@@H]2O[C@H]3[C@H](O)[C@@H](O)[C@@H](O[C@H]4[C@H](O)[C@@H](O)[C@@H](O[C@H]5[C@H](O)[C@@H](O)[C@@H](O[C@H]6[C@H](O)[C@@H](O)[C@@H](O[C@H]7[C@H](O)[C@@H](O)[C@@H](O[C@H]8[C@H](O)[C@@H](O)[C@@H](O[C@H]1[C@H](O)[C@H]2O)O[C@@H]8CO)O[C@@H]7CO)O[C@@H]6CO)O[C@@H]5CO)O[C@@H]4CO)O[C@@H]3CO` [β-cyclodextrin], the “Phosphorus Dissolution Rate (%)” value is, setting by setting: (subject substance 0.2 wt. %) 98.6%; (subject substance 0.5 wt. %) 79.7%. For the same compound, the “inhibitory effect on phosphorus dissolution from the sintered hydroxyapatite due to citric acid (in words)” value (summary of Table 1 results) is given as “effectively suppressed phosphorus dissolution”.
